ChEMBL document CHEMBL1255445, “Evaluation of nucleoside hydrolase inhibitors for treatment of African trypanosomiasis” (Antimicrob Agents Chemother, 2010)
Activity calls are given as the source filed them. How the calls were made is not given here.

Legend:
Trypanosoma cruzi = experiment: Antitrypanosomal activity against Trypanosoma cruzi Tulahuen CL2 s-galactosidase strain assessed as reduction in parasite growth after 3 days by fluorometrically; type: functional, organism-based
[1] = Inhibition of Trypanosoma vivax Inosine-adenosine-guanosine-nucleoside hydrolase
Plasmodium falciparum = experiment: Antiparasitic activity against chloroquine-sensitive Plasmodium falciparum Ghana assessed as reduction in parasite growth after 3 days by fluorimetry; type: functional, organism-based
Leishmania infantum = experiment: Antileishmanial activity against Leishmania infantum MHOM/MA/67/ITMAP263 intracellular amastigotes assessed as reduction in parasite growth after 3 days by fluorometrically; type: functional, organism-based
[2] = tested on: Trypanosoma brucei brucei; experiment: Antitrypanosomal activity against suramin sensitive Trypanosoma brucei brucei Lister 427 assessed as reduction in parasite growth after 3 days by fluorometrically; type: functional, organism-based; settings: Lister 427, 72 h
[3] = Inhibition of human purine nucleoside phosphorylase

| Ki [1] [µM] | IC50 [2] [µM] | Ki [3] [µM] | SMILES | Activity (Trypanosoma cruzi) | Activity (Plasmodium falciparum) | Activity (Leishmania infantum) |
| --- | --- | --- | --- | --- | --- | --- |
| 18 | – | – | CN1C(CCNC(=N)N)[C@H](O)[C@H](O)[C@H]1CO (some centres not stated) | inactive | inactive | inactive |
| 0.18 | – | – | OC[C@@H]1[C@@H](O)[C@@H](O)CN1Cc1ccc2ccccc2n1 | inactive | inactive | inactive |
| 58 | – | – | OC[C@@H]1[C@@H](O)[C@@H](O)CN1Cc1ccccc1 | inactive | inactive | inactive |
| 1.2 | > 64 | – | OC[C@@H]1[C@@H](O)[C@@H](O)CN1Cc1ccc(-n2cncn2)cc1 | inactive | inactive | inactive |
| 13.1 | > 64 | > 500 | O=c1cc[nH]c2c(CN3C[C@H](O)[C@H](O)[C@H]3CO)cccc12 | inactive | inactive | inactive |
| 43 | > 64 | – | Cc1nc(-c2ccccc2)ncc1CN1C[C@H](O)[C@H](O)[C@H]1CO | inactive | inactive | inactive |
| 4.3 | > 64 | – | OC[C@@H]1[C@@H](O)[C@@H](O)CN1Cc1ccc(I)cc1 | inactive | inactive | inactive |
| 286 | > 64 | – | N=C(N)NCCN1C[C@H](O)[C@H](O)[C@H]1CO | inactive | inactive | inactive |
| 0.05 | > 64 | > 1000 | Nc1ccnc2c(CN3C[C@H](O)[C@H](O)[C@H]3CO)cccc12 | inactive | inactive | inactive |
| 6.7 | 48 | – | N=C(N)c1ccc(CN2C[C@H](O)[C@H](O)[C@H]2CO)cc1 | inactive | inactive | inactive |
| 20 | – | – | OC[C@@H]1[C@@H](O)[C@@H](O)CN1Cc1ccncc1 | inactive | inactive | inactive |
| 1.2 | > 64 | – | OC[C@@H]1[C@@H](O)[C@@H](O)CN1Cc1ccc(-n2cccn2)cc1 | inactive | inactive | inactive |
| 32 | > 64 | – | COc1ccc(CN2C[C@H](O)[C@H](O)[C@H]2CO)cn1 | inactive | inactive | inactive |
| 0.11 | > 64 | > 1000 | O=c1[nH]cnc2c(CN3C[C@H](O)[C@H](O)[C@H]3CO)cccc12 | inactive | inactive | inactive |
| 0.31 | 29 | – | OC[C@@H]1[C@@H](O)[C@@H](O)CN1Cc1cccc2ccc(Cl)nc12 | inactive | inactive | inactive |
| 3.4 | 29 | – | OC[C@@H]1[C@@H](O)[C@@H](O)CN1Cc1cccc(-n2cccc2)c1 | inactive | inactive | inactive |
| 0.014 | 25 | > 1000 | OC[C@@H]1[C@@H](O)[C@@H](O)CN1Cc1cccc2c(Cl)ccnc12 | inactive | inactive | inactive |
| 2.1 | – | – | Cn1c(CN2C[C@H](O)[C@H](O)[C@H]2CO)nc2ccccc21 | inactive | inactive | inactive |
| 3.8 | > 64 | – | N#Cc1cccc(CN2C[C@H](O)[C@H](O)[C@H]2CO)c1 | inactive | inactive | inactive |
| 20 | > 64 | – | OC[C@@H]1[C@@H](O)[C@@H](O)CN1Cc1cnc2ccccc2c1 | inactive | inactive | inactive |
| 71 | > 64 | – | Cc1cc(N)c2cccc(CN3C[C@H](O)[C@H](O)[C@H]3CO)c2n1 | inactive | inactive | inactive |
| 6 | > 64 | – | OC[C@H]1NC[C@H](O)[C@@H]1O [IMINORIBITOL] | inactive | inactive | inactive |

| Ki [1] [µM] | IC50 [2] [µM] | Ki [3] [µM] | SMILES | Activity (Trypanosoma cruzi) | Activity (Plasmodium falciparum) | Activity (Leishmania infantum) |
| --- | --- | --- | --- | --- | --- | --- |
| 1 | 49 | – | OC[C@@H]1[C@@H](O)[C@@H](O)CN1Cc1ccc2cccc(O)c2n1 | inactive | inactive | inactive |
| 1.3 | > 64 | – | COc1ccc2cccc(CN3C[C@H](O)[C@H](O)[C@H]3CO)c2n1 | inactive | inactive | inactive |
| 8.4 | > 64 | – | Nc1ccc2cccc(CN3C[C@H](O)[C@H](O)[C@H]3CO)c2n1 | inactive | inactive | inactive |
| 23 | > 64 | – | O=[N+]([O-])c1cccc(CN2C[C@H](O)[C@H](O)[C@H]2CO)c1 | inactive | inactive | inactive |
| 0.042 | > 64 | > 1000 | OC[C@@H]1[C@@H](O)[C@@H](O)CN1Cc1csc2cncnc12 | inactive | inactive | inactive |
| 121 | > 64 | – | Nc1ncccc1CN1C[C@H](O)[C@H](O)[C@H]1CO | inactive | inactive | inactive |
| 2 | > 64 | – | OC[C@@H]1[C@@H](O)[C@@H](O)CN1Cc1ccc2ccccc2c1 | inactive | inactive | inactive |
| 0.72 | > 64 | – | OC[C@@H]1[C@@H](O)[C@@H](O)CN1Cc1ccc2cccnc2c1 | inactive | inactive | inactive |
| 0.37 | 22 | – | Cc1cc(Cl)c2cccc(CN3C[C@H](O)[C@H](O)[C@H]3CO)c2n1 | inactive | inactive | inactive |
| 7.5 | > 64 | – | O=[N+]([O-])c1ccc(CN2C[C@H](O)[C@H](O)[C@H]2CO)cc1 | inactive | inactive | inactive |
| 0.063 | > 64 | – | Cc1nn(-c2ccccc2)nc1CN1C[C@H](O)[C@H](O)[C@H]1CO | inactive | inactive | inactive |
| 26 | – | – | N#Cc1ccc(CN2C[C@H](O)[C@H](O)[C@H]2CO)cc1 | inactive | inactive | inactive |
| 0.14 | > 64 | > 1000 | OC[C@@H]1[C@@H](O)[C@@H](O)CN1Cc1cccc2nccnc12 | inactive | inactive | inactive |
| 29 | > 64 | – | OC[C@@H]1[C@@H](O)[C@@H](O)CN1Cc1ccnc2ccccc12 | inactive | inactive | inactive |
| 0.75 | – | – | OC[C@@H]1[C@@H](O)[C@@H](O)CN1Cc1nccc2ccccc12 | inactive | inactive | inactive |
| 0.015 | > 64 | > 1000 | Nc1ncnc2c(CN3C[C@H](O)[C@H](O)[C@H]3CO)cccc12 | inactive | inactive | inactive |
| 1 | 38 | – | OC[C@@H]1[C@@H](O)[C@@H](O)CN1Cc1ccc(-n2cccc2)cc1 | inactive | inactive | inactive |
| 187 | > 64 | – | O=c1ccc2cccc(CN3C[C@H](O)[C@H](O)[C@H]3CO)c2[nH]1 | inactive | inactive | inactive |
| 39.9 | > 64 | – | N=C(N)NCCCN1C[C@H](O)[C@H](O)[C@H]1CO | inactive | inactive | inactive |
| 0.72 | > 64 | – | Cn1nnc2cc(CN3C[C@H](O)[C@H](O)[C@H]3CO)ccc21 | inactive | inactive | inactive |
| 7 | > 64 | – | N=C(N)Nc1ccc(CN2C[C@H](O)[C@H](O)[C@H]2CO)cc1 | inactive | inactive | inactive |

| SMILES | Ki [1] [µM] | IC50 [2] [µM] | Ki [3] [µM] | Activity (Trypanosoma cruzi) | Activity (Plasmodium falciparum) | Activity (Leishmania infantum) |
| --- | --- | --- | --- | --- | --- | --- |
| OC[C@@H]1[C@@H](O)[C@@H](O)CN1CCc1c[nH]c2ccccc12 | 9.5 | 31 | – | inactive | inactive | inactive |
| OC[C@@H]1[C@@H](O)[C@@H](O)CN1Cc1c[nH]c2ccccc12 | 12 | > 64 | > 800 | inactive | inactive | inactive |
| COc1cccc2c(CN3C[C@H](O)[C@H](O)[C@H]3CO)c[nH]c12 | 2.3 | > 64 | > 400 | inactive | inactive | inactive |
